# “Also recorded” adds a separate entry of the source.
# Legend:
# [1] = tested on: DSS colitis; assay: DSS colitis with fluconazole in the drinking water (anti-fungal therapy); assay type: in vivo, mouse; conditions: Clec7a−/− mice; for weight loss during colitis: fluconazole 0.5 mg/ml in drinking water for 14 days starting 2 days prior to DSS, 2.5% DSS 7 days, effect from day 9 (p<0.05)
# Protocol: WT and Clec7a−/− mice were cohoused for three weeks prior the experiments. Alternatively, WT and Clec7a−/− littermates were used where indicated. For the induction of colitis, mice were given drinking water supplemented with 2.5% (w/v) Dextran sulphate sodium (DSS, MP Biomedicals, LLC, Aurora, Ohio) for 7 days and sacrificed at day 12. For ablation of intestinal fungi, mice were given Fluconazole (0.5 mg/ml, Sigma) in the drinking water for total of 14 days starting 2 days prior the induction of DSS colitis. In some experiments, prior and upon colitis induction, mice were supplemented every other day with four doses (1×108 yeast/mouse/dose) of Candida tropicalis or Saccharomycopsis fibuligera as shown in FIG. 19. Body weight, gross blood, and stool consistency were analyzed on a daily basis. Paraffin embedded colon tissues were sectioned and stained with H&E for pathology assessment. Assessment of the severity of colitis was measured by the disease activity index (DAI) as previously described.
# LI-LP lymphocytes were isolated as previously described with some modifications. Briefly, colons were isolated, opened longitudinally, washed of fecal contents and then cut into 1 cm pieces. Intestinal pieces were transferred into HBSS medium (Sigma), supplemented with 5% fetal bovine serum (FBS) and 2 mM EDTA, and were shaken for 15 min at 37° C. The suspensions were filtered through a mesh and the filtrate containing the mucosa and mucosa associated microflora was used further for DNA isolation. The remaining tissue was washed, cut in small pieces and subsequently incubated in digestion medium consisting of RPMI 1640, 5% FBS, 0.5 mg/ml collagenase type VIII (Sigma), 5 U/ml DNase (Roche Diagnostics), 100 IU/ml penicillin and 100 μg/ml streptomycin for 30 min at 37° C. by gentle shaking. The cell suspensions were filtered through a mesh, and then centrifuged at 1300 rpm. Cell suspensions were cultured overnight and TNF-α production by colonic cells was measured by ELISA (BioLegend, San Diego, Calif.).
# Cell suspensions were prepared from MLNs and the LI-LP as described above. Cells were incubated with 50 ng/ml phorbol 12-myristate 13-acetate (PMA; Sigma-Aldrich), 500 ng/ml ionomycin (Sigma-Aldrich) and 10 μg/ml Brefeldin A (BFA; Sigma-Aldrich) in complete RPMI media at 37° C. for 6 h. After surface staining with CD4, cells were permeabilized and intracellular cytokine staining was performed using APC-labeled anti-IFN-γ mAb (XMG1.2; BD Biosciences) and PE-labeled anti-IL-17 mAb (TC11-18H10; BD Biosciences) according to the manufacturer's instructions. Flow cytometry was performed using a LSRII (BD Biosciences) and data were analyzed with FlowJo software (TreeStar Inc.).
# For detection of cytokines by ELISA, MLN cells and LI-LP lymphocytes were stimulated with 10 μg/ml plate bound anti-CD3 and anti-CD28 antibodies (BioLegend, San Diego, Calif.). Supernatants were collected after 36 hrs and analyzed for IFN-γ and IL-17 production by ELISA (BioLegend, San Diego, Calif.).
# Tissue samples from the proximal and distal colon were isolated and homogenized. RNA was isolated by using RNeasy Mini Kit (Qiagen) and reverse transcribed. Real-time RT-PCR analyses were done on the Applied Biosystems 7500 Fast Real-Time PCR System with the SYBR Green PCR kit as instructed by the manufacturer (Applied Biosystems). […] Samples were analyzed for gene expression using the following primers: […]
# [2] = tested on: intestinal fungi; assay: Depletion of intestinal fungi by fluconazole, colon sections stained with sDEC-1; assay type: in vivo, mouse; conditions: mice treated with fluconazole 0.5 mg/ml in drinking water for 2 weeks; sDEC-1 staining of colon sections
# Protocol: OCT-embedded intestinal specimens were sectioned, mounted on microscope slides and then incubated for 40 min in PBS containing 2% FCS. Murine soluble Dectin-1 (sDec-1) was generated and biotin-labeled as previously described. sDec-1 (10 μg/ml) was fluorescently labeled with streptavidin-Alexa 647 (2 μg/ml, Invitrogen) (sDec-1-Alexa647), and intestinal sections were stained for 1 hr. To block Dectin-1 interaction. sDec-1-Alexa647 was incubated with 1 μg/ml laminarin (soluble β-glucan from Laminaria digitata, Sigma) and intestinal sections were stained as previously described. Alternatively, intestinal sections were stained with FITC conjugated rabbit anti-Candida polyclonal antibody (Meridian Life Science, Cincinnati, Ohio). […] Therefore throughout this study we have referred to the antibody as an “anti-fungal antibody”. Slides were rinsed with PBS and stained for 5 min with 0.1 μg/ml 4′,6-diamidino-2-phenylindole (DAPI, Invitrogen) and overlaid with mounting medium (Vectashield; Vector, Burlingame, Calif.). Slides were examined using a Zeiss Axio Observer Fluorescence microscope. All compared images were collected and processed identically. Colons from Fluconazole (0.5 mg/ml for 2 weeks in the drinking water) treated mice were used in control staining.
# [3] = fluconazole in drinking water, DSS colitis
smiles,measurement,setting,value
OC(Cn1cncn1)(Cn1cncn1)c1ccc(F)cc1F [fluconazole],weight loss during colitis,[1],reduced weight loss
same,weight loss during colitis,[1]; listed as Fluconazole,significantly abrogated weight loss
same,colitis overall,[1]; fluconazole in drinking water for 14 days starting 2 days prior to DSS,ameliorates colitis
same,histological disease characteristics (histology score),"[1]; fluconazole in drinking water, 4 days after the 7 days of DSS",milder histological disease characteristics
same,"Th1 and Th17 responses (IL-17 and IFN-γ producing CD4+ T cells in LI-LP, production in MLNs)",[1]; [3],decreased Th1 and Th17 responses
same,production of inflammatory cytokines in the colon,[1]; [3],decreased production of inflammatory cytokines
same,presence of fungi in the intestine,[2],substantially reduces the presence of fungi; also recorded: suppressed fungal growth
